Counter-ions that a name gives are not always drawn.

We go through 27 compounds from patent US20080045506A1 (GLAXO GROUP LIMITED, priority 2004, published 2008).

The target in this assay is T1, histamine H3 receptor (Homo sapiens, UniProt Q9Y5N1).
T1 construct: expressed in transfected cells; host or cells: CHO K1 cells (pSwitch/pGene GeneSwitch system, mifepristone-induced), clone 3H3; membranes
The assay can be described thus: Histamine H3 functional antagonist assay (method B). To be noted: [35S]-GTPγS SPA, membrane prepared from cultured H3 cells, histamine at EC80, averages of a number of experiments, read-out: functional pKi (fpKi), antagonism (converted). It counts as biochemical. An excerpt:
A membrane preparation containing histamine H3 receptors may be prepared in accordance with the following procedures:
(i) Generation of Histamine H3 Cell Line
DNA encoding the human histamine H3 gene (Huvar, A. et al. (1999) Mol. Pharmacol. 55(6), 1101-1107) was cloned into a holding vector, pcDNA3.1 TOPO (InVitrogen) and its cDNA was isolated from this vector by restriction digestion of plasmid DNA with the enzymes BamH1 and Not-1 and ligated into the inducible expression vector pGene (InVitrogen) digested with the same enzymes. The GeneSwitch™ system (a system where in transgene expression is switched off in the absence of an inducer and switched on in the presence of an inducer) was performed as described in U.S. Pat. Nos. 5,364,791; 5,874,534; and 5,935,934. Ligated DNA was transformed into competent DH5α E. coli host bacterial cells and plated onto Luria Broth (LB) agar containing Zeocin™ (an antibiotic which allows the selection of cells expressing the sh ble gene which is present on pGene and pSwitch) at 50 μg ml^−1. Colonies containing the re-ligated plasmid were identified by restriction analysis. DNA for transfection into mammalian cells was prepared from 250 ml cultures of the host bacterium containing the pGeneH3 plasmid and isolated using a DNA preparation kit (Qiagen Midi-Prep) as per manufacturers guidelines (Qiagen).
CHO K1 cells previously transfected with the pSwitch regulatory plasmid (InVitrogen) were seeded at 2×10e6 cells per T75 flask in Complete Medium, containing Hams F12 (GIBCOBRL, Life Technologies) medium supplemented with 10% v/v dialysed foetal bovine serum, L-glutamine, and hygromycin (100 μg ml^−1), 24 hours prior to use. Plasmid DNA was transfected into the cells using Lipofectamine plus according to the manufacturers guidelines (InVitrogen). 48 hours post transfection cells were placed into complete medium supplemented with 500 μg ml^−1 Zeocin™.
10-14 days post selection 10 nM Mifepristone (InVitrogen), was added to the culture medium to induce the expression of the receptor. 18 hours post induction cells were detached from the flask using ethylenediamine tetra-acetic acid (EDTA; 1:5000; InVitrogen), following several washes with phosphate buffered saline pH 7.4 and resuspended in Sorting Medium containing Minimum Essential Medium (MEM), without phenol red, and supplemented with Earles salts and 3% Foetal Clone II (Hyclone). Approximately 1×10e7 cells were examined for receptor expression by staining with a rabbit polyclonal antibody, 4a, raised against the N-terminal domain of the histamine H3 receptor, incubated on ice for 60 minutes, followed by two washes in sorting medium. Receptor bound antibody was detected by incubation of the cells for 60 minutes on ice with a goat anti rabbit antibody, conjugated with Alexa 488 fluorescence marker (Molecular Probes). Following two further washes with Sorting Medium, cells were filtered through a 50 μm Filcon™ (BD Biosciences) and then analysed on a FACS Vantage SE Flow Cytometer fitted with an Automatic Cell Deposition Unit. Control cells were non-induced cells treated in a similar manner. Positively stained cells were sorted as single cells into 96-well plates, containing Complete Medium containing 500 μg ml^−1 Zeocin™ and allowed to expand before reanalysis for receptor expression via antibody and ligand binding studies. One clone, 3H3, was selected for membrane preparation.
(ii) Membrane Preparation from Cultured Cells
All steps of the protocol are carried out at 4° C. and with pre-cooled reagents. The cell pellet is resuspended in 10 volumes of homogenisation buffer (50 mM N-2-hydroxyethylpiperazine-N′-2-ethanesulfonic acid (HEPES), 1 mM ethylenediamine tetra-acetic acid (EDTA), pH 7.4 with KOH, supplemented with 10e-6M leupeptin (acetyl-leucyl-leucyl-arginal; Sigma L2884), 25 μg/ml bacitracin (Sigma B0125), 1 mM phenylmethylsulfonyl fluoride (PMSF) and 2×10e-6M pepstain A (Sigma)). […]
Background: GTPγS resists hydrolysis and so accumulates on activated G proteins.

T1 sequence (Q9Y5N1 whole entry): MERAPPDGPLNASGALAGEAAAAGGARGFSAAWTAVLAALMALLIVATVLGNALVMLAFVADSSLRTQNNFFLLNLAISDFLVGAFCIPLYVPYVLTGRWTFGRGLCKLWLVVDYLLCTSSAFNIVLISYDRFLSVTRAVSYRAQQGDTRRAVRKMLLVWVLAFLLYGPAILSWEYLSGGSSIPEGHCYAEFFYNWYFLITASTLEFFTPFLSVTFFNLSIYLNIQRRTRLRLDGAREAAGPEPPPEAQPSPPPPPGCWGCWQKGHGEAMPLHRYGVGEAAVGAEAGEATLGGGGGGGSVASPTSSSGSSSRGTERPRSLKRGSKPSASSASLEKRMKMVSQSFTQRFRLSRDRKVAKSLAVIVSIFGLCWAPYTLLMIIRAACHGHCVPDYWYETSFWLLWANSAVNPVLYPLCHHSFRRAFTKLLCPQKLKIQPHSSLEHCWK

For the compound `Cc1noc(-c2ccc(N3CCC(C(=O)N4CCCN(C5CCC5)CC4)C3)cc2)n1` (racemic) [Example E18, (R,S)-1-Cyclobutyl-4-({1-[4-(3-methyl-1,2,4-oxadiazol-5-yl)phenyl]-3-pyrrolidinyl}carbonyl)hexahydro-1H-1,4-diazepine], the Ki was ≤ 0.316 nM.
With `Cc1ccc2cc(N3CCC(C(=O)N4CCCN(C5CCC5)CC4)C3)ccc2n1` (racemic) [Example E19, (R,S)-6-{3-[(4-Cyclobutylhexahydro-1H-1,4-diazepin-1-yl)carbonyl]-1-pyrrolidinyl}-2-methylquinoline], the Ki is < 10 nM.
For `Cc1noc(-c2ccc(N3CCC(C(=O)N4CCCN(C5CCC5)CC4)C3)c(F)c2)n1` (racemic) [Example E20, (R,S)-1-Cyclobutyl-4-({1-[2-fluoro-4-(3-methyl-1,2,4-oxadiazol-5-yl)phenyl]-3-pyrrolidinyl}carbonyl)hexahydro-1H-1,4-diazepine] the value was ≤ 0.316 nM; for `CC(=O)c1ccc(N2CCC(C(=O)N3CCCN(C4CCC4)CC3)C2)cc1` (racemic) [Example E21, (R,S)-1-(4-{3-[(4-Cyclobutylhexahydro-1H-1,4-diazepin-1-yl)carbonyl]-1-pyrrolidinyl}phenyl)ethanone], ≤ 0.316 nM.
To `Cc1noc(-c2ccc(N3CC[C@@H](C(=O)N4CCCN(C5CCC5)CC4)C3)cc2)n1` (single isomer, unassigned) [Example E18A, hydrochloride] belongs ≤ 0.316 nM.
To `Cc1noc(-c2ccc(N3CC[C@H](C(=O)N4CCCN(C5CCC5)CC4)C3)cc2)n1` (single isomer, unassigned) [Example E18B, hydrochloride] belongs ≤ 0.316 nM; to `Cc1ccc2cc(N3CC[C@@H](C(=O)N4CCCN(C5CCC5)CC4)C3)ccc2n1` (single isomer, unassigned) [Example E19A, hydrochloride], < 10 nM.
Consider `Cc1ccc2cc(N3CC[C@H](C(=O)N4CCCN(C5CCC5)CC4)C3)ccc2n1` (single isomer, unassigned) [Example E19B, hydrochloride], for which the Ki was ≤ 0.316 nM.
Consider `Cc1noc(-c2ccc(N3CC[C@@H](C(=O)N4CCCN(C5CCC5)CC4)C3)c(F)c2)n1` (single isomer, unassigned) [Example E20A, hydrochloride], for which the Ki is < 10 nM.
For the compound `Cc1noc(-c2ccc(N3CC[C@H](C(=O)N4CCCN(C5CCC5)CC4)C3)c(F)c2)n1` (single isomer, unassigned) [Example E20B, hydrochloride], the Ki is ≤ 0.316 nM.
In the case of `CC(=O)c1ccc(N2CC[C@@H](C(=O)N3CCCN(C4CCC4)CC3)C2)cc1` (single isomer, unassigned) [Example E21A, hydrochloride], the Ki was < 10 nM.
For the compound `CC(=O)c1ccc(N2CC[C@H](C(=O)N3CCCN(C4CCC4)CC3)C2)cc1` (single isomer, unassigned) [Example E21B, hydrochloride], the Ki is ≤ 0.316 nM.
To `CC(=O)c1ccc(N2CC[C@H](C(=O)N3CCN(C(C)C)CC3)C2)cc1` [Example E2, 1-[4-((3S)-3-{[4-(1-Methylethyl)-1-piperazinyl]carbonyl}-1-pyrrolidinyl)phenyl]ethanone] belongs ≤ 0.316 nM; to `Cc1noc(-c2ccc(N3CC[C@H](C(=O)N4CCN(C(C)C)CC4)C3)cc2)n1` [Example E3, 1-(1-Methylethyl)-4-({(3S)-1-[4-(3-methyl-1,2,4-oxadiazol-5-yl)phenyl]-3-pyrrolidinyl}carbonyl)piperazine], ≤ 0.316 nM; to `CC(=O)c1ccc(N2CC[C@H](C(=O)N3CCN(C(C)C)[C@@H](C)C3)C2)cc1` [Example E5, 1-[4-((3S)-3-{[(3S)-3-Methyl-4-(1-methylethyl)-1-piperazinyl]carbonyl}-1-pyrrolidinyl)phenyl]ethanone], ≤ 0.316 nM.
To `Cc1noc(-c2ccc(N3CC[C@H](C(=O)N4CCN(C(C)C)[C@@H](C)C4)C3)cc2)n1` [Example E6, (2S)-2-Methyl-1-(1-methylethyl)-4-({(3S)-1-[4-(3-methyl-1,2,4-oxadiazol-5-yl)phenyl]-3-pyrrolidinyl}carbonyl)piperazine] belongs ≤ 0.316 nM; to `CCC(CC)N1CCN(C(=O)[C@H]2CCN(c3ccc(C(C)=O)cc3)C2)CC1` [Example E8, 1-[4-((3S)-3-{[4-(1-Ethylpropyl)-1-piperazinyl]carbonyl}-1-pyrrolidinyl)phenyl]ethanone], ≤ 0.316 nM; to `CCC(CC)N1CCN(C(=O)[C@H]2CCN(c3ccc(-c4nc(C)no4)cc3)C2)CC1` [Example E9, 1-(1-Ethylpropyl)-4-({(3S)-1-[4-(3-methyl-1,2,4-oxadiazol-5-yl)phenyl]-3-pyrrolidinyl}carbonyl)piperazine], ≤ 0.316 nM.
As to `CC(=O)c1ccc(N2CC[C@H](C(=O)N3CCCN(CC4CC4)CC3)C2)cc1` [Example E10, 1-[4-((3S)-3-{[4-(Cyclopropylmethyl)hexahydro-1H-1,4-diazepin-1-yl]carbonyl}-1-pyrrolidinyl)phenyl]ethanone], the Ki was ≤ 0.316 nM.
To `Cc1noc(-c2ccc(N3CC[C@H](C(=O)N4CCCN(CC5CC5)CC4)C3)cc2)n1` [Example E11, 1-(Cyclopropylmethyl)-4-({(3S)-1-[4-(3-methyl-1,2,4-oxadiazol-5-yl)phenyl]-3-pyrrolidinyl}carbonyl)hexahydro-1H-1,4-diazepine] belongs ≤ 0.316 nM; to `O=C([C@H]1CCN(c2ccc(C(F)(F)F)nc2)C1)N1CCN(C2CCC2)CC1` [Example E12, 1-Cyclobutyl-4-({(3S)-1-[6-(trifluoromethyl)-3-pyridinyl]-3-pyrrolidinyl}carbonyl)piperazine], ≤ 0.316 nM.
Regarding `Cc1noc(-c2ccc(N3CC[C@H](C(=O)N4CCN(C5CCC5)CC4)C3)cc2)n1` [Example E13, 1-Cyclobutyl-4-({(3S)-1-[4-(3-methyl-1,2,4-oxadiazol-5-yl)phenyl]-3-pyrrolidinyl}carbonyl)piperazine], the Ki is ≤ 0.316 nM.
For `Cc1noc(-c2ccc(N3CC[C@H](C(=O)N4CCN(C(C)C)CC4)C3)cc2F)n1` [Example E24, 1-({(3S)-1-[3-Fluoro-4-(3-methyl-1,2,4-oxadiazol-5-yl)phenyl]-3-pyrrolidinyl}carbonyl)-4-(1-methylethyl)piperazine] the value was ≤ 0.316 nM; for `Cc1noc(-c2ccc(N3CC[C@H](C(=O)N4CCN(C(C)C)CC4)C3)c(F)c2)n1` [Example E25, 1-({(3S)-1-[2-Fluoro-4-(3-methyl-1,2,4-oxadiazol-5-yl)phenyl]-3-pyrrolidinyl}carbonyl)-4-(1-methylethyl)piperazine], ≤ 0.316 nM.
For `CC(=O)c1ccc(N2CC[C@H](C(=O)N3CCCN(C(C)C)CC3)C2)cc1` [Example E27, 1-[4-((3S)-3-{[4-(1-Methylethyl)hexahydro-1H-1,4-diazepin-1-yl]carbonyl}-1-pyrrolidinyl)phenyl]ethanone] the value was ≤ 0.316 nM; for `Cc1noc(-c2ccc(N3CC[C@H](C(=O)N4CCCN(C(C)C)CC4)C3)cc2)n1` [Example E28, 1-(1-Methylethyl)-4-({(3S)-1-[4-(3-methyl-1,2,4-oxadiazol-5-yl)phenyl]-3-pyrrolidinyl}carbonyl)hexahydro-1H-1,4-diazepine], ≤ 0.316 nM; for `Cc1noc(-c2ccc(N3CC[C@H](C(=O)N4CCCN(C(C)C)CC4)C3)cc2F)n1` [Example E29, 1-({(3S)-1-[3-Fluoro-4-(3-methyl-1,2,4-oxadiazol-5-yl)phenyl]-3-pyrrolidinyl}carbonyl)-4-(1-methylethyl)hexahydro-1H-1,4-diazepine hydrochloride], ≤ 0.316 nM.
